Publication PMC12848717, “Discovery of Encrypted Peptides in a Human Matrix Metallopeptidase” (JACS Au, 2025)
Where two headings read alike, the source gives them in different places. Square brackets hold non-standard residues; d marks the D form. Ends that are not written are not given here. Peptide text beside a SMILES is read from it.

What was measured:
[1] = test system: S. epidermidis ATCC 35984; test: time-kill (killing kinetic) assay; assay type: cell-based; conditions: Fig 7D
A. baumannii ATCC 19606 [2] = test: murine skin abscess infection model; assay type: in vivo, mouse (female CD-1); conditions: after 4 days; single topical dose at MIC ([…] μM r(P)YLL19, 32 μM D(P)YLL19) 2 h postinfection; CFU of homogenized skin; n = 6
Protocol: Six-week-old female CD-1 mice (Charles River, stock number: 18679700-022) were anesthetized with isoflurane, and the dorsal skin was shaved. A superficial linear abrasion was made using a sterile needle. A 20 μL aliquot of A. baumannii ATCC 19606, grown in LB medium to an optical density at 600 nm (OD600) of 0.5 and then washed twice with sterile PBS (pH 7.4; 9391 g for 2 min), was applied to the abraded area at a final concentration of 3.67 × 10^6 CFU mL^-1. Peptides and antibiotics were diluted in sterile water to their respective MICs and topically applied to the infection site 2 h postinfection. Untreated control mice received 20 μL of sterile PBS. At 2 and 4 days postinfection, animals were euthanized, and the wounded infected skin area was aseptically and uniformly excised. Tissue was homogenized using a bead beater (25 Hz for 20 min), serially diluted 10-fold, and plated on MacConkey agar plates for CFU quantification. Each treatment group included six mice (n = 6), with mice housed individually to prevent cross-contamination. […] Two independent experiments were conducted, each with 3 mice per treatment group. Statistical significance was assessed using one-way ANOVA followed by Dunnett's post hoc test after log10 transformation of CFU counts.

A. baumannii ATCC 19606 [3] = test: time-kill (killing kinetic) assay; assay type: cell-based; conditions: Fig 7D
[4] = test system: human epidermoid carcinoma cells (A431); assay type: cell-based; conditions: 72 h, 100 μM
Protocol: (§1) Cell viability remained above 70% even at the highest tested concentrations after 72 h of incubation.

[5] = test system: human primary dermal fibroblasts (HDF); assay type: cell-based
Protocol: as §1

[6] = test system: human immortalized keratinocytes (HaCaT); assay type: cell-based
Protocol: as §1

[7] = test system: sheep red blood cells (SRBCs)
[8] = test system: S. epidermidis ATCC 35984
A. baumannii ATCC 19606 [9] = test system: A. baumannii ATCC 19606
[10] = test system: Human coronavirus 229E (HCoV-229E); conditions: plaque reduction

CC[C@@H](C)[C@@H](NC(=O)[C@@H](CCCNC(=N)N)NC(=O)[C@@H](Cc1ccccc1)NC(=O)[C@H](NC(=O)[C@@H](CC(C)C)NC(=O)[C@@H](Cc1c[nH]cn1)NC(=O)[C@@H](CCCCN)NC(=O)[C@@H](CCCCN)NC(=O)[C@@H](CCCNC(=N)N)NC(=O)[C@@H](Cc1c[nH]c2ccccc12)NC(=O)[C@@H](CCCNC(=N)N)NC(=O)CNC(=O)[C@@H](CC(C)C)NC(=O)[C@@H](CC(C)C)NC(=O)[C@@H](CC(C)C)NC(=O)[C@@H](Cc1ccc(O)cc1)NC(=O)[C@H]1CCCN1)[C@H](C)O)C(=O)N[C@H](CC(C)C)C(=O)N[C@H](CC(N)=O)C(=O)N[C@H](CC(C)C)C(=O)O [D(P)YLL19] (H-[dP][dY][dL][dL][dL]G[dR][dW][dR][dK][dK][dH][dL][dT][dF][dR][dI][dL][dN][dL]-OH; N-terminus and C-terminus assumed)
3 to 4 orders of magnitude: reduction in bacterial burden (A. baumannii ATCC 19606 [2])
≤ 15 min: time to complete bacterial eradication, peptide combined with colistin or polymyxin B [1] | time to complete bacterial eradication, peptide combined with colistin (A. baumannii ATCC 19606 [3])
no hemolytic activity: hemolytic activity [7]
above 70%: cell viability [4] | cell viability ([5]; 72 h, 100 μM) | cell viability ([6]; 72 h, 100 μM)
25–30%: reduction in viability [5] | reduction in viability [6]

PYLLLGRWRKKHLTFRILNLPSTLPPHTARAALR [r(P)YLL33]
27.8 µM: IC50 ([10]; read-out: IC50, co-treatment, Vero-76 cells exposed to virus and peptide simultaneously, 1 h, 37 °C)
16.4 µM: IC50 ([10]; read-out: IC50, virus pretreatment, virus incubated with peptide 1 h, 37 °C before infection)
5 µM: MIC after treatment 12 ([8]; ATCC 35984) | MIC after treatment 1 ([8]; Table S4, serial exposure at MIC/2, treatment 1 of 21) | MIC after treatment 2 ([8]; Table S4, serial exposure at MIC/2, treatment 2 of 21) | MIC after treatment 3 ([8]; Table S4, serial exposure at MIC/2, treatment 3 of 21) | MIC after treatment 4 ([8]; Table S4, serial exposure at MIC/2, treatment 4 of 21) | MIC after treatment 5 ([8]; Table S4, serial exposure at MIC/2, treatment 5 of 21) | MIC after treatment 6 ([8]; Table S4, serial exposure at MIC/2, treatment 6 of 21) | MIC after treatment 7 ([8]; Table S4, serial exposure at MIC/2, treatment 7 of 21) | MIC after treatment 8 ([8]; Table S4, serial exposure at MIC/2, treatment 8 of 21) | MIC after treatment 9 ([8]; Table S4, serial exposure at MIC/2, treatment 9 of 21) | MIC after treatment 10 ([8]; Table S4, serial exposure at MIC/2, treatment 10 of 21) | MIC after treatment 11 ([8]; Table S4, serial exposure at MIC/2, treatment 11 of 21) | MIC after treatment 13 ([8]; Table S4, serial exposure at MIC/2, treatment 13 of 21) | MIC after treatment 14 ([8]; Table S4, serial exposure at MIC/2, treatment 14 of 21) | MIC after treatment 15 ([8]; Table S4, serial exposure at MIC/2, treatment 15 of 21) | MIC after treatment 16 ([8]; Table S4, serial exposure at MIC/2, treatment 16 of 21) | MIC after treatment 17 ([8]; Table S4, serial exposure at MIC/2, treatment 17 of 21) | MIC after treatment 18 ([8]; Table S4, serial exposure at MIC/2, treatment 18 of 21) | MIC after treatment 19 ([8]; Table S4, serial exposure at MIC/2, treatment 19 of 21) | MIC after treatment 20 ([8]; Table S4, serial exposure at MIC/2, treatment 20 of 21) | MIC after treatment 21 ([8]; Table S4, serial exposure at MIC/2, treatment 21 of 21) | MIC after treatment 12 (A. baumannii ATCC 19606 [9]; ATCC 19606) | MIC after treatment 1 (A. baumannii ATCC 19606 [9]; Table S3, serial exposure at MIC/2, treatment 1 of 21) | MIC after treatment 2 (A. baumannii ATCC 19606 [9]; Table S3, serial exposure at MIC/2, treatment 2 of 21) | MIC after treatment 3 (A. baumannii ATCC 19606 [9]; Table S3, serial exposure at MIC/2, treatment 3 of 21) | MIC after treatment 4 (A. baumannii ATCC 19606 [9]; Table S3, serial exposure at MIC/2, treatment 4 of 21) | MIC after treatment 5 (A. baumannii ATCC 19606 [9]; Table S3, serial exposure at MIC/2, treatment 5 of 21) | MIC after treatment 6 (A. baumannii ATCC 19606 [9]; Table S3, serial exposure at MIC/2, treatment 6 of 21) | MIC after treatment 7 (A. baumannii ATCC 19606 [9]; Table S3, serial exposure at MIC/2, treatment 7 of 21) | MIC after treatment 8 (A. baumannii ATCC 19606 [9]; Table S3, serial exposure at MIC/2, treatment 8 of 21) | MIC after treatment 9 (A. baumannii ATCC 19606 [9]; Table S3, serial exposure at MIC/2, treatment 9 of 21) | MIC after treatment 10 (A. baumannii ATCC 19606 [9]; Table S3, serial exposure at MIC/2, treatment 10 of 21) | MIC after treatment 11 (A. baumannii ATCC 19606 [9]; Table S3, serial exposure at MIC/2, treatment 11 of 21) | MIC after treatment 13 (A. baumannii ATCC 19606 [9]; Table S3, serial exposure at MIC/2, treatment 13 of 21) | MIC after treatment 14 (A. baumannii ATCC 19606 [9]; Table S3, serial exposure at MIC/2, treatment 14 of 21) | MIC after treatment 15 (A. baumannii ATCC 19606 [9]; Table S3, serial exposure at MIC/2, treatment 15 of 21) | MIC after treatment 16 (A. baumannii ATCC 19606 [9]; Table S3, serial exposure at MIC/2, treatment 16 of 21) | MIC after treatment 17 (A. baumannii ATCC 19606 [9]; Table S3, serial exposure at MIC/2, treatment 17 of 21) | MIC after treatment 18 (A. baumannii ATCC 19606 [9]; Table S3, serial exposure at MIC/2, treatment 18 of 21) | MIC after treatment 19 (A. baumannii ATCC 19606 [9]; Table S3, serial exposure at MIC/2, treatment 19 of 21) | MIC after treatment 20 (A. baumannii ATCC 19606 [9]; Table S3, serial exposure at MIC/2, treatment 20 of 21) | MIC after treatment 21 (A. baumannii ATCC 19606 [9]; Table S3, serial exposure at MIC/2, treatment 21 of 21)
